Drawing on patent US20230203059A1, “MACROCYCLIC JAK INHIBITOR AND USES THEREOF” (Biopolar Hongye (Guangdong) Pharmaceutical Co. Ltd., priority 2020, published 2023), this text covers IC50 for ten molecules.

Each structure is given as a SMILES string.

What all share (assay type): biochemical
Experiment [1] concerns the target JAK1 (Homo sapiens, UniProt P23458). The experiment is described as follows: JAK kinase activity, homogeneous time-resolved fluorescence (JAK1 reaction system). The following applies: ATP 2 μM, JAK1 protein 0.2 ng/μL; read-out: JAK 1 activity. The protocol: (§1) The activity measurement method of JAK kinase was to use homogeneous time-resolved fluorescence technique. The reaction was performed in 384 shallow well plates with a total reaction volume of 10 μL. The mixture of kinase protein, compound, ATP and substrate was carried out in a reaction buffer of 50 mM Hepes (pH7.0), NaN3 0.02%, BSA 0.01%, 0.1 mM Orthocanadate, 5 mM MgCl2, and 1 mM DTT. After reacting for 1 hour, an antibody capable of recognizing substrate phosphorylation, dye XL-615 and detection buffer (Cisbio) containing EDTA were added to the system. The reaction signal of kinase was detected by PE company's porous plate detector. The parameter settings were excitation light at 320 nm, emission light at 615 nm and 665 nm. The activity of JAK is indirectly reflected by the signal ratio of 665 nm and 615 nm. In the reaction, the background well without enzyme and the total enzyme activity well without compound were set.
(§2) The IC50 value of the compound inhibiting protein was obtained by the formula: Y=100/(1+10^((Log IC50−X)*HillSlope)). In JAK1 reaction system, the concentration of ATP was 2 μM, and the concentration of JAK1 protein was 0.2 ng/μL.

Experiment [2] addresses JAK2 (Homo sapiens, UniProt O60674). The experiment is described as follows: JAK kinase activity, homogeneous time-resolved fluorescence (JAK2 reaction system). The following applies: ATP 2 μM, JAK2 protein 0.01 ng/μL. The protocol: as §1, §2
In JAK2 reaction system, the concentration of ATP was 2 μM, and the concentration of JAK2 protein was 0.01 ng/μL.

Experiment [3] has as its target T1, JAK3 (Homo sapiens, UniProt P52333).
T1 sequence (P52333 1-1124): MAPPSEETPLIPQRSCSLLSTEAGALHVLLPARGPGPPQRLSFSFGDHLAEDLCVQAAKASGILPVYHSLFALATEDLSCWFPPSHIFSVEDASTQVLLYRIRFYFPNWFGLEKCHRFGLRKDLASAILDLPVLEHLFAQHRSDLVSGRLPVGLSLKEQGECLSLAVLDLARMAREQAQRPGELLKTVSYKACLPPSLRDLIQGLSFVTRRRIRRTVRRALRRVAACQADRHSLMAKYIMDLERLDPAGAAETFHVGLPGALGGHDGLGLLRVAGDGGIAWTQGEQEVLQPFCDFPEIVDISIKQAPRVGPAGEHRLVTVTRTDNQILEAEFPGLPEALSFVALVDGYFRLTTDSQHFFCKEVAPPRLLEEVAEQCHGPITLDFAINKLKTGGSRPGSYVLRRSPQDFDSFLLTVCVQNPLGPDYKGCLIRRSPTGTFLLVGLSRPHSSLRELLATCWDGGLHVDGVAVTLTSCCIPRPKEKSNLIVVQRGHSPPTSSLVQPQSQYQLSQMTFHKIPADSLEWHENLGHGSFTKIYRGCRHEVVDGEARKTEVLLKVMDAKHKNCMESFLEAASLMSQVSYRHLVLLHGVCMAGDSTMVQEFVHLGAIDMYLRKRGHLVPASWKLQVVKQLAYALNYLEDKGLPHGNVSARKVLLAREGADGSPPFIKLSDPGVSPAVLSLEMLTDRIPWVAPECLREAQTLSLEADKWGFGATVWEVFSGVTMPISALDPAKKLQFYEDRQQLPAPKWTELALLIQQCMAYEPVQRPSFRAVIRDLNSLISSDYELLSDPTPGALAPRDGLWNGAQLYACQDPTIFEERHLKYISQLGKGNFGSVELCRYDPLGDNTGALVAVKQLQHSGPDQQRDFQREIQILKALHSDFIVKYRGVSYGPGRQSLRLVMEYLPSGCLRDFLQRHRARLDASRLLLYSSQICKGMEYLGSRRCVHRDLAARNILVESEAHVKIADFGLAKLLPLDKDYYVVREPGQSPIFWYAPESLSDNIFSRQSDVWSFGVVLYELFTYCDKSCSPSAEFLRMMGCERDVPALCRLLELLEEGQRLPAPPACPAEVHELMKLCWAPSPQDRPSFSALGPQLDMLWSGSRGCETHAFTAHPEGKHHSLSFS
Description: JAK kinase activity, homogeneous time-resolved fluorescence (JAK3 reaction system). Particulars: ATP 2 μM, JAK3 protein 0.04 ng/μL; read-out: JAK 3 activity. The method, then: as §1, with “The reaction was performed in 384 shallow well plates with a total reaction volume of 10 μL.” left out, “After reacting for 1 hour, an antibody capable of recognizing substrate phosphorylation, dye XL-615 and detection buffer (Cisbio) containing EDTA were added to the system.” left out, “set. […]” for “set.”
In JAK3 reaction system, the concentration of ATP was 2 μM, and the concentration of JAK3 protein was 0.04 ng/μL.

Experiment [4] deals with TYK2 (Homo sapiens, UniProt P29597). The experiment is described as follows: JAK kinase activity, homogeneous time-resolved fluorescence (TYK2 reaction system). The following applies: ATP 2 μM, TYK2 protein 0.2 ng/μL; read-out: TYK 2 activity. The method, then:
as §1, §2
In TYK2 reaction system, the concentration of ATP was 2 μM, and the concentration of TYK2 protein was 0.2 ng/μL.

JAK2, sequence (O60674 whole entry): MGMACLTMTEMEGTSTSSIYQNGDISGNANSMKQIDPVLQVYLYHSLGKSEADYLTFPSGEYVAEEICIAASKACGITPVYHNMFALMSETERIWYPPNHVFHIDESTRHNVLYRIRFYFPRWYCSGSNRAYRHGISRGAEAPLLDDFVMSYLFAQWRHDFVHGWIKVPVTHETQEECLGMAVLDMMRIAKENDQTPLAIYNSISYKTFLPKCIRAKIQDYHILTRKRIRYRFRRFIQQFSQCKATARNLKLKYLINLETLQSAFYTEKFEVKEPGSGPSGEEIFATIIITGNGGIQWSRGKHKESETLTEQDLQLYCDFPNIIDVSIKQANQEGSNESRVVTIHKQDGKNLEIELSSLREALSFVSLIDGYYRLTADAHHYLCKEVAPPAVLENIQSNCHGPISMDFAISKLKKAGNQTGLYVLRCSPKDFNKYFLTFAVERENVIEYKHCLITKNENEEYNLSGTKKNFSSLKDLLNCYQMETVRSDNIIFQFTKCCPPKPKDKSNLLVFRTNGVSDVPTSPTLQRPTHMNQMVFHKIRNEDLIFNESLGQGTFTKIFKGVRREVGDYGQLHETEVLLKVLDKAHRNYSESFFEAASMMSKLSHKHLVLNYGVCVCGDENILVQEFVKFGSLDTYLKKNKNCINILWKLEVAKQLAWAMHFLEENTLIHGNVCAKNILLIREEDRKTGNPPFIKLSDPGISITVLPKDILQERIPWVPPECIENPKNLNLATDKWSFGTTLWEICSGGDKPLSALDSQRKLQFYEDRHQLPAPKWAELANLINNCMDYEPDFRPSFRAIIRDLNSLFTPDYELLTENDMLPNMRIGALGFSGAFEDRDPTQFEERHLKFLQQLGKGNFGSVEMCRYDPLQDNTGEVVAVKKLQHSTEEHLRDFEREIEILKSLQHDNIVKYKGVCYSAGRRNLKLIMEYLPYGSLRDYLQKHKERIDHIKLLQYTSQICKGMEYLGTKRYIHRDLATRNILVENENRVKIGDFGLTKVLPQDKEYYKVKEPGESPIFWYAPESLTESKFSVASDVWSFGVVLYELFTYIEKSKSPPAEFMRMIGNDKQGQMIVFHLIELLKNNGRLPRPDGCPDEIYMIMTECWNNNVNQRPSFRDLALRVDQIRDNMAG
JAK1, sequence (P23458 whole entry): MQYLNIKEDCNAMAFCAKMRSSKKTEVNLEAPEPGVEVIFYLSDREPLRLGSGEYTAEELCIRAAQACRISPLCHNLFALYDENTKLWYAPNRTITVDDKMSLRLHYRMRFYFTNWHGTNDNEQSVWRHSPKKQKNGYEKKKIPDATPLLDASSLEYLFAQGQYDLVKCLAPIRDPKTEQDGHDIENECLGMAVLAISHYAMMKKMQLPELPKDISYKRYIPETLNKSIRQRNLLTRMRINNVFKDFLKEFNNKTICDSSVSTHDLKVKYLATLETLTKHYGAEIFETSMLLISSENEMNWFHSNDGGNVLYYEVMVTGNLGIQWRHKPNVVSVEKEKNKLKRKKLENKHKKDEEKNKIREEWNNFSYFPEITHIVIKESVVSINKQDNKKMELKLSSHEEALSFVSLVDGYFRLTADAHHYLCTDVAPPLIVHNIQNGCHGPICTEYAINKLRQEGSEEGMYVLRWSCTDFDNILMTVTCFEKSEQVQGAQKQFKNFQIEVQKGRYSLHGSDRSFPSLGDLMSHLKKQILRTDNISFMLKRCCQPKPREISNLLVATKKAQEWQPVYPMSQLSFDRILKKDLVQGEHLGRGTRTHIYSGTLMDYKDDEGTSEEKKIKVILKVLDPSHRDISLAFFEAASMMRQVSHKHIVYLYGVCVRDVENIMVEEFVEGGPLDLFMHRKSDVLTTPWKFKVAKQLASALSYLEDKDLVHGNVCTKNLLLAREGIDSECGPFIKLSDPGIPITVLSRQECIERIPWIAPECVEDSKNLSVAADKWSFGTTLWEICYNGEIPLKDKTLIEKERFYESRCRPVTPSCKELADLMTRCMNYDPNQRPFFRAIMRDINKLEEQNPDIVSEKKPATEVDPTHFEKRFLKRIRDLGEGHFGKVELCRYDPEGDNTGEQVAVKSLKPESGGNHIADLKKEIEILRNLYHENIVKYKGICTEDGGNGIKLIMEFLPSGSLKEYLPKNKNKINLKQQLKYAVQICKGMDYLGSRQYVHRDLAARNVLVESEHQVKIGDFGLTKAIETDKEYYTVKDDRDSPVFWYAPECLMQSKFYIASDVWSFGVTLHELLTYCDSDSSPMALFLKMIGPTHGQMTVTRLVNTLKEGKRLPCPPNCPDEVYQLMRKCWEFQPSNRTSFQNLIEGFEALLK
TYK2, sequence (P29597 whole entry): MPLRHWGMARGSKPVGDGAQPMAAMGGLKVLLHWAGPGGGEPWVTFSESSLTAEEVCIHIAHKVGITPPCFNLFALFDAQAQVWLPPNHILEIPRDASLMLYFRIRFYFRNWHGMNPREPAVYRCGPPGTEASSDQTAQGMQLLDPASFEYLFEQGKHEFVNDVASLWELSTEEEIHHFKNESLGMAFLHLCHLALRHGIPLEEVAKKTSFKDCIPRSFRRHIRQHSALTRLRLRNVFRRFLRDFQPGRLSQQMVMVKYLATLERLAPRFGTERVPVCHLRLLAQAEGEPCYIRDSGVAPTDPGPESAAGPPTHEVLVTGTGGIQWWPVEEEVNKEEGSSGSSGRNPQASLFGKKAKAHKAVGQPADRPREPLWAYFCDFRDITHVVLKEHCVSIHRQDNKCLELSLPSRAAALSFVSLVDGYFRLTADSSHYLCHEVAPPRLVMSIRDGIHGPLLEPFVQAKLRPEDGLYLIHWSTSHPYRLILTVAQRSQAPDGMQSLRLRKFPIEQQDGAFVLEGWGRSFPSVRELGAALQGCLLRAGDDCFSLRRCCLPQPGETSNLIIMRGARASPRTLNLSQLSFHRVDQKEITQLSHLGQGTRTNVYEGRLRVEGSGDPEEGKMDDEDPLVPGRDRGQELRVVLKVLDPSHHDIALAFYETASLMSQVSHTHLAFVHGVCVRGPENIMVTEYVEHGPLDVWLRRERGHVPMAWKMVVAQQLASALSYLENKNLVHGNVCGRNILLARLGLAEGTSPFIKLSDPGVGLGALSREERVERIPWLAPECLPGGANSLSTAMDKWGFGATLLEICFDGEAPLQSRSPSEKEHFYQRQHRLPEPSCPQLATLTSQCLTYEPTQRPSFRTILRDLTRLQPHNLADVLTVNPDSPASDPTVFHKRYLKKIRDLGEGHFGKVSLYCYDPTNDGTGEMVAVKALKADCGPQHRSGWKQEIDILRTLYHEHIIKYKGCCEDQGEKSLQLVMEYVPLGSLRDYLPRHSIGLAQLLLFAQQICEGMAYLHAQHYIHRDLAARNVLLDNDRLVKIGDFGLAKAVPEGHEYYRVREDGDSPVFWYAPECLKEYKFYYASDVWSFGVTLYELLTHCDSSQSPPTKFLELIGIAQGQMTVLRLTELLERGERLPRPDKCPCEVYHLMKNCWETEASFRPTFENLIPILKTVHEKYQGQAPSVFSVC

With `O=C1NCCCCOCc2cc(ccc2N2CCOCC2)Nc2nccc(n2)-c2ccc1cc2[N+](=O)[O-]` [Example 24, 1^2-nitro-4^4-morpholin-6-oxa-3,11-di-aza-2(4,2)-pyrimidina-1(1,4),4(1,3)-dibenzenacyclododecaphan-12-one], the IC50 in experiment [1] was 1 to 10 µM; in experiment [2], 1 to 10 µM; in experiment [3], 0.101 to 1 µM; in experiment [4], 1 to 10 µM.
In the case of `O=C1NCCCCOCc2cc(cc(N3CCOCC3)c2)Nc2ncc(Cl)c(n2)-c2ccc1cc2F` [Example 25], the IC50 in experiment [1] was 1 to 10 µM; in experiment [2], 1 to 10 µM; in experiment [3] it was 0.101 to 1 µM; in experiment [4], 1 to 10 µM.
Consider `COc1cnc2nc1-c1ccc(cc1)C(=O)NCCCCOCc1cc(ccc1N1CCOCC1)N2` [Example 26, 2^5-methoxy-4^4-morpholin-6-oxa-3,11-diaza-2(4,2)-pyrimidina-1(1,4),4(1,3)-dibenzenacyclododecaphan-12-one], for which the IC50 was 0.101 to 1 µM in experiment [1], 0.011 to 0.1 µM in experiment [2], 0.011 to 0.1 µM in experiment [3] and 0.101 to 1 µM in experiment [4].
As to `O=C1NCCCCOCc2cc(cc(N3CCOCC3)c2)Nc2nccc(n2)-c2ccc1cc2F` [Example 27, 1^2-fluoro-4^5-morpholin-6-oxa-3,11-diaza-2(4,2)-pyrimidina-1(1,4),4(1,3)-dibenzenacyclododecaphan-12-one], the IC50 is 0.101 to 1 µM in experiment [1], 0.011 to 0.1 µM in experiment [2], 0.011 to 0.1 µM in experiment [3] and 0.101 to 1 µM in experiment [4].
Consider `CN(C)c1ccc2cc1COCCCCNC(=O)c1ccc(c(F)c1)-c1ccnc(n1)N2` [Example 28, 1^2-fluoro-4^4-dimethylamino-6-oxa-3,11-diaza-2(4,2)-pyrimidina-1(1,4),4(1,3)-dibenzenacyclododecaphan-12-one], for which the IC50 in experiment [1] fell in the range of 0.101 to 1 µM; in experiment [2], 0.011 to 0.1 µM; in experiment [3], 0.011 to 0.1 µM; in experiment [4], 0.101 to 1 µM.
With `O=C1NCCCCOCc2cc(ccc2N2CCCCC2)Nc2nccc(n2)-c2ccc1cc2F` [Example 29, 1^2-fluoro-4^4-(piperidin-1-)-6-oxa-3,11-diaza-2(4,2)-pyrimidina-1(1,4),4(1,3)-dibenzenacyclododecaphan-12-one], the IC50 in experiment [1] lay in the range of 0.101 to 1 µM; in experiment [2], 0.011 to 0.1 µM; in experiment [3], 0.011 to 0.1 µM; in experiment [4], 1 to 10 µM.
As for `O=C1NCCCCOCc2cc(ccc2N2CCOCC2)Nc2nccc(n2)-c2ccc1cc2Cl` [Example 30, 1^2-chloro-4^4-morpholin-6-oxa-3,11-diaza-2(4,2)-pyrimidina-1(1,4),4(1,3)-dibenzenacyclododecaphan-12-one], the IC50 in experiment [1] lay within 0.101 to 1 µM; in experiment [2], 0.011 to 0.1 µM; in experiment [3] it was 0.011 to 0.1 µM; in experiment [4], 0.101 to 1 µM.
`Nc1cc2ccc1-c1ccnc(n1)Nc1ccc(N3CCOCC3)c(c1)COCCCCNC2=O` [Example 31, 1^2-amino-4^4-morpholin-6-oxa-3,11-diaza-2(4,2)-pyrimidina-1(1,4),4(1,3)-dibenzenacyclododecaphan-12-one]: the IC50 in experiment [1] was 0.101 to 1 µM; in experiment [2], 0.011 to 0.1 µM; in experiment [3], under 0.01 µM; in experiment [4], 0.101 to 1 µM.
In the case of `O=C1NCCCCCc2cc(ccc2N2CCOCC2)Nc2nccc(n2)-c2ccc1cc2` [Example 32, 4^4-morpholin-3,11-diaza-2(4,2)-pyri-midina-1(1,4),4(1,3)-dibenzenacyclo-dodecaphan-11-one], the IC50 is 0.101 to 1 µM in experiment [1], under 0.01 µM in experiment [2], 0.011 to 0.1 µM in experiment [3] and 0.101 to 1 µM in experiment [4].
For `COc1ccc2cc1COCCCCNC(=O)c1ccc(c(C)c1)-c1nc(ncc1C)N2` [Example 33, 1^2,2^5-dimethyl-4^4-methoxy-6-oxa-3,11-diaza-2(4,2)-pyrimidina-1(1,4),4(1,3)-dibenzenacyclododecaphan-12-one], the IC50 in experiment [1] was 1 to 10 µM; in experiment [2], 1 to 10 µM; in experiment [3] it was 1 to 10 µM; in experiment [4], over 10 µM.
